# Reference: article PMC11094307, “Marine-derived EGFR inhibitors: novel compounds targeting breast cancer growth and drug resistance” (Frontiers in Pharmacology, 2024)
# How the values were obtained:
# A549 cells = test: MTT assay, A549; type: cell-based, human; conditions: A549 (high EGFR-expressing), 10 μM
# Description: The cell lines MCF-7 and A431 were cultured in Dulbecco’s Modified Eagle’s Medium (DMEM, Gibco, USA), while HL-60, H1299, and A549 cells were maintained in RPMI-1640 medium (Gibco, USA). Both mediums were enriched with 10% fetal bovine serum and 1% penicillin/streptomycin. […] All cell cultures were incubated at 37°C in an atmosphere containing 5% CO2.
# Cells in the exponential growth phase were seeded into 96-well plates and allowed to adhere overnight. Subsequently, they were treated in triplicate with various concentrations of the compounds (0, 1.56, 3.13, 6.25, 12.5, 25, 50, 100 µM), […]. After 24 h, 20 µL of Methyl-thiazolyldiphenyl-tetrazolium bromide (MTT, 5 mg/mL, Thermo Fisher Scientific) was added to each well and incubated for a minimum of 4 h. Following the incubation, the medium containing the compounds and MTT was removed from each well, and 200 µL of dimethyl sulfoxide (DMSO) was added. The plates were then shaken for 10 min at 37°C to dissolve the formazan crystals. The absorbance was measured using a microplate reader (BioTek Synergy 4) at a wavelength of 490 nm.
# PARP1 = test: Western blotting of MCF-7 lysates, PARP1; type: cell-based, human; conditions: for PARP1 WB Normalized: control 0 µM 1.034604877
# Description: MCF-7 cell lysates were prepared by rinsing the cells twice with PBS and then solubilizing them in lysis buffer (NP40 supplemented with protease and phosphatase inhibitor cocktails) on ice. The solubilization process involved rotating the lysis buffer/cell mixture end over end for 10 min at 4°C. After centrifugation for 10 min at 4°C to remove insoluble material, the protein concentration of the solubilized protein was determined using a BCA assay. Subsequently, samples were diluted in SDS sample buffer. Equivalent amounts of protein were separated by SDS-PAGE, transferred to PVDF membranes, and probed with the indicated antibody. Prior to incubation with primary antibodies overnight at 4°C, the membranes were blocked with 5% skim milk-TBST. The antibodies and their sources were as follows: PARP1 (1:500, Santa Cruz Biotechnology), Cleaved Caspase-3 (1:1000, Cell Signaling Technology), BAX (1:500, Santa Cruz Biotechnology), BCL-2 (1:500, Santa Cruz Biotechnology), and GAPDH (1:500, Santa Cruz Biotechnology). Following incubation with horseradish peroxidase-conjugated goat anti-mouse or goat anti-rabbit secondary antibody (Santa Cruz Biotechnology), the detected proteins were visualized using the Pierce Enhanced Chemiluminescence (ECL) reagent and a UV Products imaging system. Band intensities were quantified using the National Institutes of Health ImageJ software.
compound,measurement,setting,value
COC(=O)C/C(C)=C/C(=O)O[C@@H]1C[C@@H](C)[C@H]2[C@@H](C=C[C@H](CC(C)C)[C@]2(C)C(=O)/C=C\O)[C@@H]1O [Tandyukisin],cell lethality percentage,A549 cells,72.1% ± 1.8%
same,PARP1 WB Gray Value,PARP1; 5 µM,43160.066
same,PARP1 WB Normalized,PARP1; 5 µM,0.9844
same,PARP1 WB Gray Value,PARP1; 10 µM,33044.409
same,PARP1 WB Normalized,PARP1; 10 µM,0.759
same,PARP1 WB Gray Value,PARP1; 20 µM,24731.459
same,PARP1 WB Normalized,PARP1; 20 µM,0.7232
same,expression level of PARP1,"PARP1; MCF-7, upon treatment",decreased
